We go through 3 compounds from ChEMBL document CHEMBL1144455, “A small molecule-kinase interaction map for clinical kinase inhibitors” (Nat Biotechnol, 2005).

Molecules are shown by their SMILES.

Assay [1] addresses Phosphorylase b kinase gamma catalytic chain, skeletal muscle/heart isoform (Homo sapiens, UniProt Q16816).
For assay [2], the target named is Tyrosine-protein kinase BTK (Homo sapiens, UniProt Q06187).
In assay [3] the target is T1, Membrane-associated tyrosine- and threonine-specific cdc2-inhibitory kinase (Homo sapiens, UniProt Q99640).
T1 sequence (Q99640 whole entry): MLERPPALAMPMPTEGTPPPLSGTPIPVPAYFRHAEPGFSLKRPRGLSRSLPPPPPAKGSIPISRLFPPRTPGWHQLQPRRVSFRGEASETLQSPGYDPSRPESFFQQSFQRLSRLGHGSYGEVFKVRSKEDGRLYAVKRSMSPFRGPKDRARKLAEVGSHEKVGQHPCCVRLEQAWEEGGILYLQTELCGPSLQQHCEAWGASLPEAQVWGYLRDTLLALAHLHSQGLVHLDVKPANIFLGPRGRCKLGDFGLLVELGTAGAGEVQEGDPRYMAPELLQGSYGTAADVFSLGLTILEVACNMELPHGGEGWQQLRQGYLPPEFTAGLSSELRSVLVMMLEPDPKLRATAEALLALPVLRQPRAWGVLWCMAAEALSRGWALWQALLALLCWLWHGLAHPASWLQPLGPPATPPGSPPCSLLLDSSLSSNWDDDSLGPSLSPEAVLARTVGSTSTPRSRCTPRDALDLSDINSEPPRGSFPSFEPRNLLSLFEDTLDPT

Assay [4] has as its target Dual specificity protein kinase CLK1 (Homo sapiens, UniProt P49759).
Assay [5] concerns the target Dual specificity protein kinase CLK3 (Homo sapiens, UniProt P49761).
Assay [6] concerns the target Tyrosine-protein kinase FRK (Homo sapiens, UniProt P42685).
Assay [7] deals with Serine/threonine-protein kinase 16 (Homo sapiens, UniProt O75716).
The target of assay [8] is T2, Dual specificity protein kinase TTK (Homo sapiens, UniProt P33981).
T2 sequence (P33981 whole entry): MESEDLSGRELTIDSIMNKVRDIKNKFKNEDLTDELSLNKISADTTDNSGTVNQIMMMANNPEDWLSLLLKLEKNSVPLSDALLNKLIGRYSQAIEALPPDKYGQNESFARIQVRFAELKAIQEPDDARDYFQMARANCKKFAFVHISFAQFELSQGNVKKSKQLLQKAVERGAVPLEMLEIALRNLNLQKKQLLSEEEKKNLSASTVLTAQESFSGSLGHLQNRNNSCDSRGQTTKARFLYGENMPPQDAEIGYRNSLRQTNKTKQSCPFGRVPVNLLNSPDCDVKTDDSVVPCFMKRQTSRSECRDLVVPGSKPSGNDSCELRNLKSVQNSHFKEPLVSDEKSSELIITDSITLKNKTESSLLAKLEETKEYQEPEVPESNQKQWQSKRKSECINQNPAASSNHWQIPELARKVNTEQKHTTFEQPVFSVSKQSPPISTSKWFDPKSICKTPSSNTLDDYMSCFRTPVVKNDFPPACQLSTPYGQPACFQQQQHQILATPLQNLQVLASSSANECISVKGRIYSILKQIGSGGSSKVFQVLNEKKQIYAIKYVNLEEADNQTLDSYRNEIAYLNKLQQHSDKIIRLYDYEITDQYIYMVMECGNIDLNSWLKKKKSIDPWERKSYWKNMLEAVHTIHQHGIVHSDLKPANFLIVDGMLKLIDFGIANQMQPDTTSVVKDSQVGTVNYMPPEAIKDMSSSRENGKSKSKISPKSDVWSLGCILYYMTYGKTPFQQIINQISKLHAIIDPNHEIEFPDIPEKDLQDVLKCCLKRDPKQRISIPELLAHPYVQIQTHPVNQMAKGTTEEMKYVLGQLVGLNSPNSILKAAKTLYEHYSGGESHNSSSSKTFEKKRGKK

In another assay the target is T3, Aurora kinase C (Homo sapiens, UniProt Q9UQB9).
T3 sequence (Q9UQB9 whole entry): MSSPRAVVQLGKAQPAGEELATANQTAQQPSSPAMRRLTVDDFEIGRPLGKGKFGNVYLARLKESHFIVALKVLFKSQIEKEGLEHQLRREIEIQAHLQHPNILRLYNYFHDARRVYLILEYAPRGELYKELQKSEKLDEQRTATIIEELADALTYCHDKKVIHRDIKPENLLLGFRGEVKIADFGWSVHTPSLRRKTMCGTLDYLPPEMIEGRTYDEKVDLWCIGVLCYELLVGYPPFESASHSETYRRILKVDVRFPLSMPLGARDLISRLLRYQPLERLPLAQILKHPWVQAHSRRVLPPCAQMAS

Assay [9] concerns the target Casein kinase I isoform gamma-1 (Homo sapiens, UniProt Q9HCP0).
The target of assay [10] is Ribosomal protein S6 kinase alpha-5 (Homo sapiens, UniProt O75582).
Ribosomal protein S6 kinase alpha-5, sequence (O75582 whole entry): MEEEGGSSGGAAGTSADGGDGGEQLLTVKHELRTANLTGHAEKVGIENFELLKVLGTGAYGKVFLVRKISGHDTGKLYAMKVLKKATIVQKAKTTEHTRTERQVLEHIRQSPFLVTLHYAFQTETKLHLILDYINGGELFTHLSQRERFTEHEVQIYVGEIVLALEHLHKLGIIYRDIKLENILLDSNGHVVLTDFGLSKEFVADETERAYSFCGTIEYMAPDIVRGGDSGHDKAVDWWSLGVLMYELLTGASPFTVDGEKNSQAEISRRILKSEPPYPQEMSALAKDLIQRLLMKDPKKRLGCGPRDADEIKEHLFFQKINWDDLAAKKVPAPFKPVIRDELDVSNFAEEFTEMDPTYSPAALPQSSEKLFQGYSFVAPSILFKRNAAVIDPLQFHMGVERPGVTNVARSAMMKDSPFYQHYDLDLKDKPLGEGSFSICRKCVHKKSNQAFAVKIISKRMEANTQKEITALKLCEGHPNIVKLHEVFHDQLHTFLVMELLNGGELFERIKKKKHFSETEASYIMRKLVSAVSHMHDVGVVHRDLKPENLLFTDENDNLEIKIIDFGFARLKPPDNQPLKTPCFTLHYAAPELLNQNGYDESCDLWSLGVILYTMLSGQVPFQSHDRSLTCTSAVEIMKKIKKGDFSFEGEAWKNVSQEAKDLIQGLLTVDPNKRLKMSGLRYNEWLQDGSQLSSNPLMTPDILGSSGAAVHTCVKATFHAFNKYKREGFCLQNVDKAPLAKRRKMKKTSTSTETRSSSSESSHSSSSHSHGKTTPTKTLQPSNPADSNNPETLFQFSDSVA

Dual specificity protein kinase CLK3, sequence (P49761 whole entry): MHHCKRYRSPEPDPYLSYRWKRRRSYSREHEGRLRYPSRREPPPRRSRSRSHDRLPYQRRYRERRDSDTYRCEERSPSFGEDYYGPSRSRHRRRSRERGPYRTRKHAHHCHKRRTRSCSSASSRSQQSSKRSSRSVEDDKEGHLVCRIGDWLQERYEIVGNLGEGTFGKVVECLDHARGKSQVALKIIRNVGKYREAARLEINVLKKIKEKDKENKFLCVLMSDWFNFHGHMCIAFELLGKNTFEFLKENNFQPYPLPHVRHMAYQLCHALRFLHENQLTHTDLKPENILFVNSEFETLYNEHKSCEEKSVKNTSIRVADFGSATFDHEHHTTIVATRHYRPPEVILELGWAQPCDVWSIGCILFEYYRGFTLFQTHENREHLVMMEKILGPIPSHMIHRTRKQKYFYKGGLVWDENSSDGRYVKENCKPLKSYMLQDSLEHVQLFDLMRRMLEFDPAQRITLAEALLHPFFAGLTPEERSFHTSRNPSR
Tyrosine-protein kinase BTK, sequence (Q06187 whole entry): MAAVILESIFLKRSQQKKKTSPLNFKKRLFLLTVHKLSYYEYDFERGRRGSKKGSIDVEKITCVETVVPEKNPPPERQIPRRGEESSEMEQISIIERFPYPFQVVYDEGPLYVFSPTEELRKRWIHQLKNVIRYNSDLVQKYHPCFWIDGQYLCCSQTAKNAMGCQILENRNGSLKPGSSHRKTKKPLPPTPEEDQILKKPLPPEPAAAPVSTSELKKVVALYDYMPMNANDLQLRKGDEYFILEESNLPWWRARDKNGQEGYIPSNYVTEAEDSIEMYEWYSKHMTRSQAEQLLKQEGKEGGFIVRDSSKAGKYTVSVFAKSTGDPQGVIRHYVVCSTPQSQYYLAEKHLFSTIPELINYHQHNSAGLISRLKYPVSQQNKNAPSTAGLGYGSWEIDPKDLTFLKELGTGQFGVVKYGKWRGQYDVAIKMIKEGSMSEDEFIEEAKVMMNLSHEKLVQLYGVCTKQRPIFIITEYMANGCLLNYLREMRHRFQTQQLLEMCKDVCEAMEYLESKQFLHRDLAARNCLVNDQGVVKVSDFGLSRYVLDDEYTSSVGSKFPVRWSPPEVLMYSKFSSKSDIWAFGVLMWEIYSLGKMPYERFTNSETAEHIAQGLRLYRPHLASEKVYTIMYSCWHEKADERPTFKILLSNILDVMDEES
Dual specificity protein kinase CLK1, sequence (P49759 whole entry): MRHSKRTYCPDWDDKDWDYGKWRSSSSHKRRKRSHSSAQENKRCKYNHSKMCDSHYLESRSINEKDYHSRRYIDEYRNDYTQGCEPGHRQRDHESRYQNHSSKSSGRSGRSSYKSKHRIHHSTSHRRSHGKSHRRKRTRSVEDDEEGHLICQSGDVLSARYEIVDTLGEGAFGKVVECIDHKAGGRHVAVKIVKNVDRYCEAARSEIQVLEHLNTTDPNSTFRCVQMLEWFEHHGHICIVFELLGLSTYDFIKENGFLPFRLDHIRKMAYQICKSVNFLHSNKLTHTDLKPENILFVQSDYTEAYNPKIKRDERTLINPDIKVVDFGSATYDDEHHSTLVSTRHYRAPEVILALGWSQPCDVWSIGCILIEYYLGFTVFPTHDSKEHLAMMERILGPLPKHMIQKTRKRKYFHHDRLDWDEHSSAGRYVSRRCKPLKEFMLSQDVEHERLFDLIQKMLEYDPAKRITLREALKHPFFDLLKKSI
Tyrosine-protein kinase FRK, sequence (P42685 whole entry): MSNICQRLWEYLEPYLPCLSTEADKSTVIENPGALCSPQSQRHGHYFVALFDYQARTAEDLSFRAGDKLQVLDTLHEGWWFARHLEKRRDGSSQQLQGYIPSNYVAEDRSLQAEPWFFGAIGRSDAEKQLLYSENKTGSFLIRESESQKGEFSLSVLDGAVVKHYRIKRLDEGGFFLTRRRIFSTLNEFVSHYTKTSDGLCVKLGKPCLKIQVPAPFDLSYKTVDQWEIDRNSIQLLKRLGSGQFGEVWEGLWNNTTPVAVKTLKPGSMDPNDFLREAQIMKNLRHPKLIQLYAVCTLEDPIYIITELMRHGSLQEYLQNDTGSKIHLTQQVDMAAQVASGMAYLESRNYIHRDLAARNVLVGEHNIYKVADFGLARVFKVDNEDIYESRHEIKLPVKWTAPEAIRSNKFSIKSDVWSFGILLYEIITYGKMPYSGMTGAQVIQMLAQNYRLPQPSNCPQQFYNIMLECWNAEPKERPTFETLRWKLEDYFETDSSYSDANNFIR
Serine/threonine-protein kinase 16, sequence (O75716 whole entry): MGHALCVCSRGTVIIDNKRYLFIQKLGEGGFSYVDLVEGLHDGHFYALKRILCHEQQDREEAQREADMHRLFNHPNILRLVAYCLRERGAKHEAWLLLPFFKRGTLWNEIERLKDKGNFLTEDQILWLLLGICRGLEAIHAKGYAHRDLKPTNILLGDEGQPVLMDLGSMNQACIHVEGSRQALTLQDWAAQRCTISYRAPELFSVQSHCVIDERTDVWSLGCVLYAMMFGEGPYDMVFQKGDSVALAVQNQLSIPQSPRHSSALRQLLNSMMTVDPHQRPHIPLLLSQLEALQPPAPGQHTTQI
Phosphorylase b kinase gamma catalytic chain, skeletal muscle/heart isoform, sequence (Q16816 whole entry, canonical isoform): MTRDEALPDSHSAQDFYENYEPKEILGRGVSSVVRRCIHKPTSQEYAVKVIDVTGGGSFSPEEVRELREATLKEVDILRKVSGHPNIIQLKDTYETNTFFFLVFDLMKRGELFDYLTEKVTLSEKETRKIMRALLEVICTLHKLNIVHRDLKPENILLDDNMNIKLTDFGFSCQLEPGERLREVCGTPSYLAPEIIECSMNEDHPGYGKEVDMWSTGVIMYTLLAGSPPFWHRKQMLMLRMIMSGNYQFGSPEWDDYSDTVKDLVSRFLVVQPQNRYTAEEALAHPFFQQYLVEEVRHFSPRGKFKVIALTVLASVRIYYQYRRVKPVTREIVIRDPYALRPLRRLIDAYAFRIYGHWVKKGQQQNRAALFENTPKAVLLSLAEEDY
Casein kinase I isoform gamma-1, sequence (Q9HCP0 whole entry, canonical isoform): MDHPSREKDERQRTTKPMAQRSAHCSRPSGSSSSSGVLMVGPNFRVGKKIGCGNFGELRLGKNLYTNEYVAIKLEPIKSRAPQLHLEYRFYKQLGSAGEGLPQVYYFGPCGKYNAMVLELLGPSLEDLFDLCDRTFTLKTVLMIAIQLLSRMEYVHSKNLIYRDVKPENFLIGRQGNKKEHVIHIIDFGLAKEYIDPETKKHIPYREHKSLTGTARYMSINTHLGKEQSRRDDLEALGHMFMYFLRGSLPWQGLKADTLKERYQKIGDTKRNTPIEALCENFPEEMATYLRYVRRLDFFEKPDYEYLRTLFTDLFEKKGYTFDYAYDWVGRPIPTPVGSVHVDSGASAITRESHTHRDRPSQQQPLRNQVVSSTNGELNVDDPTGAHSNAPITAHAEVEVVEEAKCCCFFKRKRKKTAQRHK

For `CCOc1cc2ncc(C#N)c(Nc3ccc(F)c(Cl)c3)c2cc1NC(=O)/C=C/CN(C)C` [PELITINIB], the Kd in [1] stood at 1500 nM; in assay [2], 1500 nM; in assay [3], 930 nM; in [4], 1000 nM; in assay [5] it was 2100 nM.

In turn, `Oc1ccc(-c2nc(-c3ccc(F)cc3)c(-c3ccncc3)[nH]2)cc1` [SB-202190] came in with a Kd in assay [6] of 6000 nM.

Consider `Oc1c2ccccc2c2c3c(cccc13)N=N2` [SP-600125], for which the Kd was 510 nM in assay [7]; 98 nM in assay [8]; 5300 nM on Aurora kinase C; 3700 nM in assay [9]; 1700 nM in [10].
